# Laboratory results from patent US20260256792A1, “TREATMENT OF CHRONIC SPONTANEOUS URTICARIA BY ADMINISTERING (R)-2-[3-[4-AMINO-3-(2-FLUORO-4-PHENOXY-PHENYL)PYRAZOLO[3,4-D]PYRIMIDIN-1-YL]PIPERIDINE-1-CARBONYL]-4-METHYL-4-[4-(OXETAN-3-YL)PIPERAZIN-1-YL]PENT-2-ENENITRILE” (priority 2023, published 2026).
# Test system: moderate-to-severe chronic spontaneous urticaria (CSU)
# Test: Phase 2 CSU study: itch severity score over 7 days (ISS7)
# Type: in vivo, human
# Conditions: Omalizumab-Naïve Population
# Excerpt: The study comprises a 12 week, randomized, double-blind, placebo-controlled, multi-center, dose-ranging efficacy and safety phase, followed by a 40 week open label extension (OLE) phase (see FIG. 1). The study consists of three phases and an optional OLE phase. […] Clinically, CSU is characterized by the spontaneous and recurrent appearance of pruritic hives. The proposed primary endpoints were the UAS7 at Week 12 in EU and EU reference countries and the ISS7 in the US. Regardless of where a participant was from, all assessments were the same. The UAS7 score is a composite score containing both the HSS7 and the ISS7. This allowed a global assessment of the two key components of urticaria: hives and itch. […] The UAS is a validated PRO measure. […] The daily UAS scores range from 0 to 6 point/day. […] Patients were to complete the UAS using the e-diary. […] The following secondary endpoints were to be analyzed using the same approach as for the primary endpoint: • Change from baseline in UAS7 at Week 4 • Change from baseline in UAS7 at Week 12 (for US and US reference countries) • Change from baseline in ISS7 at Week 12 (except US and US reference countries) • Change from baseline in HSS7 at Week 12
compound,measurement,setting,value
"CC(C)(C=C(C#N)C(=O)N1CCC[C@@H](n2nc(-c3ccc(Oc4ccccc4)cc3F)c3c(N)ncnc32)C1)N1CCN(C2COC2)CC1 [rilzabrutinib, (R)-2-[3-[4-amino-3-(2-fluoro-4-phenoxy-phenyl)pyrazolo[3,4-d]pyrimidin-1-yl]piperidine-1-carbonyl]-4-methyl-4-[4-(oxetan-3-yl)piperazin-1-yl]pent-2-enenitrile]",Imputed non-responder n (%) (ISS7 reduction of 5 points or more),"400 mg BID, Week 3",0 n (%)
same,Non-responder n (%) (ISS7 reduction of 5 points or more),"400 mg BID, Week 3",17 (48.6) n (%)
same,OR for rilzabrutinib vs. placebo (ISS7 reduction of 5 points or more),"400 mg BID, Week 3",2.418
same,RRD (%) for rilzabrutinib vs. placebo (ISS7 reduction of 5 points or more),"400 mg BID, Week 3",21.1%
same,Responder n (%) (ISS7 reduction of 5 points or more),"400 mg BID, Week 3",18 (51.4) n (%)
same,Imputed non-responder n (%) (ISS7 reduction of 5 points or more),"400 mg BID, Week 4",2 (5.7) n (%)
same,Non-responder n (%) (ISS7 reduction of 5 points or more),"400 mg BID, Week 4",17 (48.6) n (%)
same,OR for rilzabrutinib vs. placebo (ISS7 reduction of 5 points or more),"400 mg BID, Week 4",1.476
same,Responder n (%) (ISS7 reduction of 5 points or more),"400 mg BID, Week 4",18 (51.4) n (%)
same,Imputed non-responder n (%) (ISS7 reduction of 5 points or more),"400 mg BID, Week 5",2 (5.7) n (%)
same,Non-responder n (%) (ISS7 reduction of 5 points or more),"400 mg BID, Week 5",15 (42.9) n (%)
same,OR for rilzabrutinib vs. placebo (ISS7 reduction of 5 points or more),"400 mg BID, Week 5",1.334
same,RRD (%) for rilzabrutinib vs. placebo (ISS7 reduction of 5 points or more),"400 mg BID, Week 5",7.3%
same,Responder n (%) (ISS7 reduction of 5 points or more),"400 mg BID, Week 5",20 (57.1) n (%)
same,Imputed non-responder n (%) (ISS7 reduction of 5 points or more),"400 mg BID, Week 6",2 (5.7) n (%)
same,Non-responder n (%) (ISS7 reduction of 5 points or more),"400 mg BID, Week 6",17 (48.6) n (%)
same,OR for rilzabrutinib vs. placebo (ISS7 reduction of 5 points or more),"400 mg BID, Week 6",1.326
same,RRD (%) for rilzabrutinib vs. placebo (ISS7 reduction of 5 points or more),"400 mg BID, Week 6",7.1%
same,Responder n (%) (ISS7 reduction of 5 points or more),"400 mg BID, Week 6",18 (51.4) n (%)
same,Imputed non-responder n (%) (ISS7 reduction of 5 points or more),"400 mg BID, Week 7",2 (5.7) n (%)
same,Non-responder n (%) (ISS7 reduction of 5 points or more),"400 mg BID, Week 7",16 (45.7) n (%)
same,OR for rilzabrutinib vs. placebo (ISS7 reduction of 5 points or more),"400 mg BID, Week 7",1.533
same,Responder n (%) (ISS7 reduction of 5 points or more),"400 mg BID, Week 7",19 (54.3) n (%)
same,Imputed non-responder n (%) (ISS7 reduction of 5 points or more),"400 mg BID, Week 8",3 (8.6) n (%)
same,Non-responder n (%) (ISS7 reduction of 5 points or more),"400 mg BID, Week 8",13 (37.1) n (%)
same,OR for rilzabrutinib vs. placebo (ISS7 reduction of 5 points or more),"400 mg BID, Week 8",1.690
same,RRD (%) for rilzabrutinib vs. placebo (ISS7 reduction of 5 points or more),"400 mg BID, Week 8",13.7%
same,Responder n (%) (ISS7 reduction of 5 points or more),"400 mg BID, Week 8",22 (62.9) n (%)
same,Imputed non-responder n (%) (ISS7 reduction of 5 points or more),"400 mg BID, Week 9",7 (20.0) n (%)
same,Non-responder n (%) (ISS7 reduction of 5 points or more),"400 mg BID, Week 9",16 (45.7) n (%)
same,OR for rilzabrutinib vs. placebo (ISS7 reduction of 5 points or more),"400 mg BID, Week 9",1.462
same,Responder n (%) (ISS7 reduction of 5 points or more),"400 mg BID, Week 9",19 (54.3) n (%)
same,Imputed non-responder n (%) (ISS7 reduction of 5 points or more),"400 mg BID, Week 10",8 (22.9) n (%)
same,Non-responder n (%) (ISS7 reduction of 5 points or more),"400 mg BID, Week 10",19 (54.3) n (%)
same,OR for rilzabrutinib vs. placebo (ISS7 reduction of 5 points or more),"400 mg BID, Week 10",0.883
same,RRD (%) for rilzabrutinib vs. placebo (ISS7 reduction of 5 points or more),"400 mg BID, Week 10",−3.1%
same,Responder n (%) (ISS7 reduction of 5 points or more),"400 mg BID, Week 10",16 (45.7) n (%)
same,Imputed non-responder n (%) (ISS7 reduction of 5 points or more),"400 mg BID, Week 11",7 (20.0) n (%)
same,Non-responder n (%) (ISS7 reduction of 5 points or more),"400 mg BID, Week 11",16 (45.7) n (%)
same,OR for rilzabrutinib vs. placebo (ISS7 reduction of 5 points or more),"400 mg BID, Week 11",0.963
same,RRD (%) for rilzabrutinib vs. placebo (ISS7 reduction of 5 points or more),"400 mg BID, Week 11",−1.0%
same,Responder n (%) (ISS7 reduction of 5 points or more),"400 mg BID, Week 11",19 (54.3) n (%)
same,Imputed non-responder n (%) (ISS7 reduction of 5 points or more),"400 mg BID, Week 12",11 (31.4) n (%)
same,Non-responder n (%) (ISS7 reduction of 5 points or more),"400 mg BID, Week 12",18 (51.4) n (%)
same,OR for rilzabrutinib vs. placebo (ISS7 reduction of 5 points or more),"400 mg BID, Week 12",1.095
same,RRD (%) for rilzabrutinib vs. placebo (ISS7 reduction of 5 points or more),"400 mg BID, Week 12",2.4%
same,Responder n (%) (ISS7 reduction of 5 points or more),"400 mg BID, Week 12",17 (48.6) n (%)
same,Imputed non-responder n (%) (ISS7 reduction of 5 points or more),"400 mg QPM, Week 1",0 n (%)
same,Non-responder n (%) (ISS7 reduction of 5 points or more),"400 mg QPM, Week 1",25 (67.6) n (%)
same,OR for rilzabrutinib vs. placebo (ISS7 reduction of 5 points or more),"400 mg QPM, Week 1",1.691
same,Responder n (%) (ISS7 reduction of 5 points or more),"400 mg QPM, Week 1",12 (32.4) n (%)
same,Imputed non-responder n (%) (ISS7 reduction of 5 points or more),"400 mg QPM, Week 2",0 n (%)
same,Non-responder n (%) (ISS7 reduction of 5 points or more),"400 mg QPM, Week 2",23 (62.2) n (%)
same,OR for rilzabrutinib vs. placebo (ISS7 reduction of 5 points or more),"400 mg QPM, Week 2",1.637
same,Responder n (%) (ISS7 reduction of 5 points or more),"400 mg QPM, Week 2",14 (37.8) n (%)
same,Imputed non-responder n (%) (ISS7 reduction of 5 points or more),"400 mg QPM, Week 3",0 n (%)
same,Non-responder n (%) (ISS7 reduction of 5 points or more),"400 mg QPM, Week 3",20 (54.1) n (%)
same,OR for rilzabrutinib vs. placebo (ISS7 reduction of 5 points or more),"400 mg QPM, Week 3",1.910
same,RRD (%) for rilzabrutinib vs. placebo (ISS7 reduction of 5 points or more),"400 mg QPM, Week 3",16.0%
same,Responder n (%) (ISS7 reduction of 5 points or more),"400 mg QPM, Week 3",17 (45.9) n (%)
same,Imputed non-responder n (%) (ISS7 reduction of 5 points or more),"400 mg QPM, Week 4",1 (2.7) n (%)
same,Non-responder n (%) (ISS7 reduction of 5 points or more),"400 mg QPM, Week 4",20 (54.1) n (%)
same,OR for rilzabrutinib vs. placebo (ISS7 reduction of 5 points or more),"400 mg QPM, Week 4",1.231
same,RRD (%) for rilzabrutinib vs. placebo (ISS7 reduction of 5 points or more),"400 mg QPM, Week 4",5.0%
same,Responder n (%) (ISS7 reduction of 5 points or more),"400 mg QPM, Week 4",17 (45.9) n (%)
same,Imputed non-responder n (%) (ISS7 reduction of 5 points or more),"400 mg QPM, Week 5",2 (5.4) n (%)
same,Non-responder n (%) (ISS7 reduction of 5 points or more),"400 mg QPM, Week 5",21 (56.8) n (%)
same,OR for rilzabrutinib vs. placebo (ISS7 reduction of 5 points or more),"400 mg QPM, Week 5",0.787
same,RRD (%) for rilzabrutinib vs. placebo (ISS7 reduction of 5 points or more),"400 mg QPM, Week 5",−6.3%
same,Responder n (%) (ISS7 reduction of 5 points or more),"400 mg QPM, Week 5",16 (43.2) n (%)
same,Imputed non-responder n (%) (ISS7 reduction of 5 points or more),"400 mg QPM, Week 6",4 (10.8) n (%)
same,Non-responder n (%) (ISS7 reduction of 5 points or more),"400 mg QPM, Week 6",20 (54.1) n (%)
same,OR for rilzabrutinib vs. placebo (ISS7 reduction of 5 points or more),"400 mg QPM, Week 6",1.088
same,RRD (%) for rilzabrutinib vs. placebo (ISS7 reduction of 5 points or more),"400 mg QPM, Week 6",2.0%
same,Responder n (%) (ISS7 reduction of 5 points or more),"400 mg QPM, Week 6",17 (45.9) n (%)
same,Imputed non-responder n (%) (ISS7 reduction of 5 points or more),"400 mg QPM, Week 7",6 (16.2) n (%)
same,Non-responder n (%) (ISS7 reduction of 5 points or more),"400 mg QPM, Week 7",19 (51.4) n (%)
same,OR for rilzabrutinib vs. placebo (ISS7 reduction of 5 points or more),"400 mg QPM, Week 7",1.176
same,RRD (%) for rilzabrutinib vs. placebo (ISS7 reduction of 5 points or more),"400 mg QPM, Week 7",4.0%
same,Responder n (%) (ISS7 reduction of 5 points or more),"400 mg QPM, Week 7",18 (48.6) n (%)
same,Imputed non-responder n (%) (ISS7 reduction of 5 points or more),"400 mg QPM, Week 8",7 (18.9) n (%)
same,Non-responder n (%) (ISS7 reduction of 5 points or more),"400 mg QPM, Week 8",20 (54.1) n (%)
same,OR for rilzabrutinib vs. placebo (ISS7 reduction of 5 points or more),"400 mg QPM, Week 8",0.843
same,RRD (%) for rilzabrutinib vs. placebo (ISS7 reduction of 5 points or more),"400 mg QPM, Week 8",−4.4%
same,Responder n (%) (ISS7 reduction of 5 points or more),"400 mg QPM, Week 8",17 (45.9) n (%)
same,Imputed non-responder n (%) (ISS7 reduction of 5 points or more),"400 mg QPM, Week 9",6 (16.2) n (%)
same,Non-responder n (%) (ISS7 reduction of 5 points or more),"400 mg QPM, Week 9",18 (48.6) n (%)
same,OR for rilzabrutinib vs. placebo (ISS7 reduction of 5 points or more),"400 mg QPM, Week 9",1.328
same,RRD (%) for rilzabrutinib vs. placebo (ISS7 reduction of 5 points or more),"400 mg QPM, Week 9",6.5%
same,Responder n (%) (ISS7 reduction of 5 points or more),"400 mg QPM, Week 9",19 (51.4) n (%)
same,Imputed non-responder n (%) (ISS7 reduction of 5 points or more),"400 mg QPM, Week 10",6 (16.2) n (%)
